Test results reported in PMC8151276, “An Integrated Approach toward NanoBRET Tracers for Analysis of GPCR Ligand Engagement” (Molecules, 2021).

Assays:
Type in all cases: binding
TBXA2R = target: T1, TBXA2R (Homo sapiens, UniProt P21731); assay: NanoBRET screen HiBiT-TBXA2R in HEK293
T1 construct: purchased Promega (in-house HiBiT-GPCR construct library, NanoBRET)
T1 sequence (P21731 1-343): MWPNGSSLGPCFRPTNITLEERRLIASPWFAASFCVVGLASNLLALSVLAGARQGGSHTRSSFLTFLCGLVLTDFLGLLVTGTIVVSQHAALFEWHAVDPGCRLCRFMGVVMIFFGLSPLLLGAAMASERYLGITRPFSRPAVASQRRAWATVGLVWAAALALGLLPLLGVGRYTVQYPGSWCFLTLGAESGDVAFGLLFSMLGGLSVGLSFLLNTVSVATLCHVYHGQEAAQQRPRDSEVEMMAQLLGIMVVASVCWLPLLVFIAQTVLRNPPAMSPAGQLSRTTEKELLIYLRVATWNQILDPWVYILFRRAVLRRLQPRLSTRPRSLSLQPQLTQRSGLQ
Experimental: (§1) Each tracer candidate was screened across the entire library of HiBiT-GPCR constructs using NanoBRET as the detection modality. As depicted in Figure 4A, the specificity of interactions was evaluated through decrease in BRET due to competitive displacement of a bound tracer by excess parental compound. Each tracer was analyzed for binding to each HiBiT-GPCR fusion in the absence and in the presence of competing parental compound. Briefly, HEK293 cells were transfected with HiBiT-GPCR constructs diluted into promoterless DNA to reduce expression and maximize translocation to the cell surface. Each tracer candidate was then screened at concentrations of 1 μM and 0.1 μM across cells expressing these fusions. Cells were treated for 1.5 h with tracer either alone or in the presence of 20 μM competing parental compound (i.e., control). BRET was measured upon addition of purified LgBiT and subsequent complementation with HiBiT genetically fused to a GPCR. The specificity of interactions was assessed through a decrease in BRET signal due to competitive displacement of the bound tracer. To further gauge the robustness of these interactions, the fold response over the control (i.e., BRETtracer/BRETcontrol) was calculated. We chose a 1.5-fold response, which translates to ≥7-fold signal over noise as the minimal threshold required to score an interaction as positive. […]. Below we highlight the screening results obtained for our exemplary fluorescent tracers based on Clozapine, Amitriptyline and AZD1283.
(§2) HiBiT-GPCR DNA constructs were diluted in 10 mM Tris pH 8 to a final concentration of 0.01 μg/μL, arrayed in 96-well plates and stored at −20 °C. For transfection, HEK293 cells were suspended in Opti-MEM (without phenol red) supplemented with 2% fetal bovine serum (Seradigm) and 100 units/mL penicillin–streptomycin (Gibco) at a final concentration of 220,000 cells/mL and dispensed into white 96-well plates at 90 μL/well. Subsequent transfections and screens were carried using an Agilent Bravo Automated Liquid Handling Platform. First, the 96-well HiBiT DNA arrays were diluted 25-fold in Opti-MEM (without serum or phenol red) to a final concentration of 0.0004 μg/μL and 20 μL of the diluted DNAs were transferred into new 96-well plates. Next, promoterless carrier DNA (1 μg/μL) was diluted 25-fold (0.04 μg/μL) and then dispensed into the diluted arrays at 20 μL/well. Following brief mixing, Viafect transfection reagent (Promega) diluted 16-fold into Opti-MEM was dispensed into the plates at 40 μL/well. After mixing by pipetting, plates were incubated for 10 min on the pipetting station deck. The DNA-transfection reagent complexes were then added to plates containing cells. To facilitate the screen, 10 μL of DNA-transfection reagent complexes were added in duplicates to the top 4 and bottom 4 rows, resulting in two identical 48-well arrays per plate. Plates with transfected cells were incubated for 18–20 h at 37 °C/5% CO2. A screen of each tracer across the entire library using two different concentrations requires duplicate plates of transfected cells. Depending on the number of tracers being screened, transfections can be scaled up using the same ratios. The next day, for each tracer, four 20× screening solutions in tracer dilution buffer (Promega) were prepared: two duplicates at final concentration of 20 μM and two duplicates at a final concentration of 2 μM. A competing unmodified compound was added to one of each duplicate at a final concentration of 400 μM. The four resulting solutions were diluted 4-fold in Opti-MEM without serum or phenol red to generate 5× solutions (5 µM and 0.5 µM tracer +/− 100 μM competing compound). To screen the library, a BioTek MultiFlo FX liquid dispenser was used to dispense 22.5 µL of tracer solution to the top 4 rows and 22.5 µL tracer + competing compound solution to the 4 bottom rows. Plates were briefly mixed on an orbital shaker and incubated for 1.5 h at room temperature. […]

ADRB1 = target: T2, ADRB1 (Homo sapiens, UniProt P08588); assay: NanoBRET screen HiBiT-ADRB1 in HEK293
T2 construct: purchased Promega (in-house HiBiT-GPCR construct library, NanoBRET)

TACR2 = target: T3, TACR2 (Homo sapiens, UniProt P21452); assay: NanoBRET screen HiBiT-TACR2 in HEK293
T3 construct: purchased Promega (in-house HiBiT-GPCR construct library, NanoBRET)
T3 sequence (P21452 1-398): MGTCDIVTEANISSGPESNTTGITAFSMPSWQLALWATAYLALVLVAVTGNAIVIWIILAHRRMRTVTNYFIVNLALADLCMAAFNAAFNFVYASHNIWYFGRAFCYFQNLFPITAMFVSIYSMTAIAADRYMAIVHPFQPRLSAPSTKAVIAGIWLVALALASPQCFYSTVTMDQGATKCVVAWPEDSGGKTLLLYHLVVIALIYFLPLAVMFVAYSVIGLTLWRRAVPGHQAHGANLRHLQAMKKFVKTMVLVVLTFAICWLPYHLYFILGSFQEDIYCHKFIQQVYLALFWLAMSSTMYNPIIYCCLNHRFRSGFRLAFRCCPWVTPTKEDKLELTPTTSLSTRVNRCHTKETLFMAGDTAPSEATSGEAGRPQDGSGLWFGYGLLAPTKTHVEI
Experimental: as §1, §2

T2 sequence (P08588 whole entry): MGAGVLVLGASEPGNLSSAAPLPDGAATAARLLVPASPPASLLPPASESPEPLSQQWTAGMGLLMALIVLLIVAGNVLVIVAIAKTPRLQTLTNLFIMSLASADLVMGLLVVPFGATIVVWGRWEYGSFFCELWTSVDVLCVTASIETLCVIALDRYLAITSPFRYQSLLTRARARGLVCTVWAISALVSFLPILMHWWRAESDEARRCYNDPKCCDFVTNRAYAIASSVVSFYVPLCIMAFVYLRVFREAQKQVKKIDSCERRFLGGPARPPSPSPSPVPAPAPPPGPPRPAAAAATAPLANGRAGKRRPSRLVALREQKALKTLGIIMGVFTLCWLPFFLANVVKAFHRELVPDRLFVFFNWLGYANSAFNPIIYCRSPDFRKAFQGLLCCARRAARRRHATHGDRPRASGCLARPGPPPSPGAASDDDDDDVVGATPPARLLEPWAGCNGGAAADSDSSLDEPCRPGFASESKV

| Structure (SMILES) | NanoBRET Fold Response (TBXA2R; TBXA2R, tracer 0.1μM) | NanoBRET Fold Response (TBXA2R; TBXA2R, tracer 1μM) | NanoBRET Fold Response (ADRB1; ADRB1, tracer 0.1μM) | NanoBRET Fold Response (ADRB1; ADRB1, tracer 1μM) | NanoBRET Fold Response (TACR2; TACR2, tracer 0.1μM) | NanoBRET Fold Response (TACR2; TACR2, tracer 1μM) | also measured |
| --- | --- | --- | --- | --- | --- | --- | --- |
| O=C(CCOCCOCCOCCOCCNC(=O)CCc1ccc2n1[B-](F)(F)[N+]1=C(c3ccc[nH]3)C=CC1=C2)NCCCN1CCN(C2=Nc3cc(Cl)ccc3Nc3ccccc32)CC1 [Clozapine-a-2-NB590] | – | – | – | – | – | – | NanoBRET Fold Response (TBXA2R; TBXA2R, 0.1μM tracer): 1.08; NanoBRET Fold Response (TBXA2R; TBXA2R, 1μM tracer): 1.08; NanoBRET Fold Response (ADRB1; ADRB1, 0.1μM tracer): 0.95; NanoBRET Fold Response (ADRB1; ADRB1, 1μM tracer): 0.94; NanoBRET Fold Response (TACR2; TACR2, 0.1μM tracer): 1.02; NanoBRET Fold Response (TACR2; TACR2, 1μM tracer): 0.89 |
| CCCn1c(=O)c2[nH]c(-c3ccc(OCC(=O)NCCNC(=O)CCOCCNC(=O)c4ccc(CNC(=O)CCc5ccc6n5[B-](F)(F)[N+]5=C(c7ccc[nH]7)C=CC5=C6)cc4)cc3)nc2n(CCC)c1=O [XAC-3-NB590] | 1.04 | 1.04 | 1.07 | 1.05 | 0.96 | 1.21 | – |
| O=C(CCc1ccc2n1[B-](F)(F)[N+]1=C(c3ccc[nH]3)C=CC1=C2)NCc1ccc(C(=O)NCCOCCC(=O)N[C@@H]2CC[C@@]3(O)[C@H]4Cc5ccc(O)c6c5[C@@]3(CCN4CC3CC3)[C@H]2O6)cc1 [Naltrexone-3-NB590] | 1.24 | 1.13 | 1.34 | 0.83 | 0.82 | 0.91 | – |
| N#CN=C(NCCCOc1cccc(CN2CCCCC2)c1)NCCNC(=O)CCOCCOCCOCCOCCNC(=O)CCc1ccc2n1[B-](F)(F)[N+]1=C(c3ccc[nH]3)C=CC1=C2 [Aminopotentidine-2-NB590] | 0.98 | 1.04 | 1.01 | 0.99 | 0.98 | 1.02 | – |
| COc1ccc2c(n1)c(CCNC(C)=O)cn2CCNC(=O)CCc1ccc2n1[B-](F)(F)[N+]1=C(c3ccc[nH]3)C=CC1=C2 [Azamelatonin-1-NB590] | – | – | – | – | – | – | NanoBRET Fold Response (TBXA2R; 0.1μM tracer): 0.84; NanoBRET Fold Response (TBXA2R; 1μM tracer): 0.94; NanoBRET Fold Response (ADRB1; 0.1μM tracer): 0.98; NanoBRET Fold Response (ADRB1; 1μM tracer): 0.96; NanoBRET Fold Response (TACR2; 0.1μM tracer): 0.81; NanoBRET Fold Response (TACR2; 1μM tracer): 0.91 |
| CC(C)N(CC[C@H](c1ccccc1)c1cc(CCNC(=O)c2ccc(CNC(=O)CCc3ccc4n3[B-](F)(F)[N+]3=C(c5ccc[nH]5)C=CC3=C4)cc2)ccc1O)C(C)C [Tolterodine-BZ-NB590] | 0.91 | 1.03 | 1.02 | 1.10 | 1.38 | 1.40 | – |
| CN1CCN(C2=Nc3cc(Cl)ccc3Nc3ccc(CNC(=O)CCOCCOCCOCCOCCNC(=O)CCc4ccc5n4[B-](F)(F)[N+]4=C(c6ccc[nH]6)C=CC4=C5)cc32)CC1 [Clozapine-b-2-NB590] | – | – | – | – | – | – | NanoBRET Fold Response (TBXA2R; TBXA2R, 0.1μM tracer): 0.98; NanoBRET Fold Response (TBXA2R; TBXA2R, 1μM tracer): 1.08; NanoBRET Fold Response (ADRB1; ADRB1, 0.1μM tracer): 0.99; NanoBRET Fold Response (ADRB1; ADRB1, 1μM tracer): 1.02; NanoBRET Fold Response (TACR2; TACR2, 0.1μM tracer): 0.97 |
